ChEMBL document CHEMBL3576791, “Rational Design of a Novel AMPA Receptor Modulator through a Hybridization Approach” (ACS Med Chem Lett, 2015)
Calls of active or inactive are those of the source. The calls are words filed in the database; no cut-off is given here.

Columns and labels:
Format in all cases: cell-based
[1] = biological target: Glutamate receptor 2 (Homo sapiens) (UniProt P42262); assay: Modulation of GluA2 flip receptor (unknown origin) transfected in HEK293 cells assessed as deactivation of channel at 30 uM by electrophysiology
Chain of Glutamate receptor 2 (Homo sapiens) (P42262 whole entry): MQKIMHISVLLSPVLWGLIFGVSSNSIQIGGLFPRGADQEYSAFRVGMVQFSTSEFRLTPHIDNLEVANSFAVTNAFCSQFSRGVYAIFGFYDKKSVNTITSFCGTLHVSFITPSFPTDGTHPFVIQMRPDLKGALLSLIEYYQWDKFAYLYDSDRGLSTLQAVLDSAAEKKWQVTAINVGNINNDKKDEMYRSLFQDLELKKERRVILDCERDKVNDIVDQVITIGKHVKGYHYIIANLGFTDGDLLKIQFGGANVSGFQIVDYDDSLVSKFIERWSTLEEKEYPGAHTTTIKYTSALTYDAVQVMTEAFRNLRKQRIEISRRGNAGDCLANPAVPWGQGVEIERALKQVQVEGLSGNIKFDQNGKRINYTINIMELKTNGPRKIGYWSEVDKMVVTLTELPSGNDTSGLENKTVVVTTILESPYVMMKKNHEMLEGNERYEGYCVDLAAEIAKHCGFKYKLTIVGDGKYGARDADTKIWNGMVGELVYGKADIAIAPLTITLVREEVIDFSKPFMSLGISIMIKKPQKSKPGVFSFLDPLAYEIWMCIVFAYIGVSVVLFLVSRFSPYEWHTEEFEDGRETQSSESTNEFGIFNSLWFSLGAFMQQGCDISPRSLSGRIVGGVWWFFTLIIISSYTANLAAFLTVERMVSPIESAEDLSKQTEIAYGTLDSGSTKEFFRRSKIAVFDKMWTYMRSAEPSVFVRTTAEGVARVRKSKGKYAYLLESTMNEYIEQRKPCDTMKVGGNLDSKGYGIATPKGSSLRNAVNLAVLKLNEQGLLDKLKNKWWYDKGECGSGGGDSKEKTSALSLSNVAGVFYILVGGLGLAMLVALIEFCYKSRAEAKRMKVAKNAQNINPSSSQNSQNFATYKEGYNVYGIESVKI

[2] = biological target: Glutamate receptor 2 (Homo sapiens) (UniProt P42262); assay: Modulation of GluA2 flop receptor (unknown origin) transfected in HEK293 cells assessed as deactivation of channel at 30 uM by electrophysiology
[3] = biological target: Glutamate receptor 2 (Homo sapiens) (UniProt P42262); assay: Modulation of GluA2 flip receptor (unknown origin) transfected in HEK293 cells assessed as desensitization measured as increase in steady-state current at 30 uM by electrophysiology
[4] = biological target: Glutamate receptor 2 (Homo sapiens) (UniProt P42262); assay: Modulation of GluA2 flop receptor (unknown origin) transfected in HEK293 cells assessed as desensitization measured as increase in steady-state current at 30 uM by electrophysiology
[5] = biological target: Glutamate receptor 2 (Homo sapiens) (UniProt P42262); assay: Modulation of GluA2 flip receptor (unknown origin) transfected in HEK293 cells assessed as deactivation of channel at 100 uM by electrophysiology
[6] = biological target: Glutamate receptor 2 (Homo sapiens) (UniProt P42262); assay: Modulation of GluA2 flop receptor (unknown origin) transfected in HEK293 cells assessed as deactivation of channel at 100 uM by electrophysiology
[7] = biological target: Glutamate receptor 2 (Homo sapiens) (UniProt P42262); assay: Modulation of GluA2 flip receptor (unknown origin) transfected in HEK293 cells assessed as desensitization measured as increase in steady-state current at 100 uM by electrophysiology
[8] = biological target: Glutamate receptor 2 (Homo sapiens) (UniProt P42262); assay: Modulation of GluA2 flop receptor (unknown origin) transfected in HEK293 cells assessed as desensitization measured as increase in steady-state current at 100 uM by electrophysiology

Activity [1]	Activity [2]	Activity [5]	Activity [6]	SMILES	Activity [3]	Activity [4]	Activity [7]	Activity [8]
inactive	inactive			O=S1(=O)c2ccc(Cn3cc(CO)c(C(F)(F)F)n3)cc2OC[C@@H]2CCCN21	Active	Active		
inactive	inactive			O=C1c2ccc(-n3cc(CO)c(C(F)(F)F)n3)cc2OC[C@@H]2CCCN12	inactive	inactive		
		Active	Active	NC(=O)c1c(NC(=O)Cn2cc(CO)c(C(F)(F)F)n2)sc2ccccc12			Active	Active
Active	inactive			O=C1c2ccc(Cn3cc(CO)c(C(F)(F)F)n3)cc2OC[C@@H]2CCCN12	Active	Active		
